Experiment [1] concerns mPGES-1-dependent PGE2 production in human blood. Description: Whole blood assay (LPS-stimulated human blood, PGE2 production). The format is cell-based. Conditions: 0.1 μg/ml LPS, 16 hours, 37° C., PGE2 by HTRF, read-out: hWBA. From the text:
The whole blood assay [described by Patrignani, P. et al, Journal of Pharmacology and Experimental Therapeutics, 1994, vol. 271, pp 1705-1712] was used as the whole cell assay for testing the compounds. Whole blood provides a protein and cell rich environment for the study of biochemical efficacy of anti-inflammatory compounds, such as prostaglandin synthase inhibitors. To study the inhibitory activities of these compounds, human blood was stimulated with lipopolysaccharide (LPS) for typically 16 hours to induce mPGES-1 expression, after which the concentration of produced PGE2 was measured by competitive-immuno assay (homogeneous time-resolved fluorescence, HTRF) as read out for effectiveness against mPGES-1-dependent PGE2 production.
Human blood collected from human volunteers in heparinized tubes was incubated with 100 μM acetyl salicylic acid, in order to inhibit the constitutively expressed cyclooxygenase (COX)-1/COX-2 enzymes, and then stimulated with 0.1 μg/ml LPS to induce the expression of enzymes along the COX-2 pathway, e.g. COX-2 and mPGES-1. 100 μL of this blood was added to the wells of a 384-well plate containing 1 μL DMSO solutions of compounds typically in the final concentration range 316 μM to 0.01 μM. Naproxen was used as reference compound. The mix was incubated at 37° C. for 16 hours. Plasma was harvested by centrifugation and stored at −70° C. until further analysis of PGE2 levels. For the calculations, the 0%-activity value was represented by blood treated with acetyl salicylic acid, LPS and the reference compound (1 mM Naproxen). The 100%-activity value was represented by blood treated with aspirin, LPS and DMSO. [Reference: Patrignani, P. et al, Journal of Pharmacology and Experimental Therapeutics, 1994, vol. 271, pp 1705-1712]. The PGE2 formed was quantified, after dilution in a weak potassium phosphate buffer (50 mM, pH 6.8) containing 0.2% BSA (w/v), by use of a commercial HTRF based kit (catalogue #62PG2PEC or #62P2APEC from Cisbio International). IC50 values were then determined using standard procedures.
A general note: In TR-FRET formats the signal depends on donor and acceptor labels being close together.

Another experiment has as its target T1, human mPGES-1 (Homo sapiens, UniProt O14684).
T1 construct: host or cells: microsomes
T1 sequence (O14684 1-152): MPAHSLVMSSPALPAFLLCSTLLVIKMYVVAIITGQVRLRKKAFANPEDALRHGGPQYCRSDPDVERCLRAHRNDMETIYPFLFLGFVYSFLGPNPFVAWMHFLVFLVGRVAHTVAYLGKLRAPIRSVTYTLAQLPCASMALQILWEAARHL
Description: Microsomal prostaglandin E synthase biochemical assay. Conditions: microsomes containing human mPGES-1, PGH2 10.8 μM, GSH 2.5 mM, pH 6.8; average of at least n=2. On the procedure:
Compounds were tested as inhibitors of microsomal prostaglandin E synthase activity in microsomal prostaglandin E synthase assays and whole cell assays. These assays measure prostaglandin E2 (PGE2) synthesis, which is taken as a measure of prostaglandin E synthase activity. Microsomal prostaglandin E synthase biochemical assays used microsomal prostaglandin E synthase-1 in microsomal preparations. The source of the microsomes can be for example interleukin-1β-stimulated human A549 cells (which express human mPGES-1) or Sf9 cells transfected with plasmids encoding human mPGES-1 cDNA.
A solution of test compound was added to a diluted microsome preparation containing human mPGES-1 and pre-incubated for 15 minutes in potassium phosphate buffer pH 6.8 with cofactor glutathione (GSH). Corresponding solutions without test compound were used as positive controls, and corresponding solutions without test compound and without microsomes were used as negative controls. The enzymatic reaction was then started by addition of the substrate PGH2 in an organic solution (dry acetonitrile).
The typical reaction conditions of the enzymatic reaction were thus: Test compound: ranging from 60 μM to 0.002 μM, or zero in positive and negative controls; potassium phosphate buffer pH 6.8: 50 mM; GSH: 2.5 mM; mPGES-1-containing microsomes: 2 μg/mL (sample and positive controls) or 0 μg/mL (negative control); PGH2: 10.8 μM; Acetonitrile: 7.7% (v/v); DMSO: 0.6% (v/v). The reaction was stopped after one minute by adding an acidic solution (pH 1.9) of ferric chloride and citrate (final concentrations 7 mM and 47 mM respectively), by which the PGH2 was sequestered (the PGH2 is reduced to mainly 12-hydroxy heptadecatrineoic acid (12-HHT) which is not detected by the subsequent PGE2 detection step). The resulting solution was then pH neutralized by addition of potassium phosphate buffer, prior to diluting an aliquot of the resulting solution in a weak potassium phosphate buffer (50 mM, pH 6.8) containing 0.2% BSA (w/v). [Adapted from Jacobsson et al., Proc. Natl. Acad. Sci. USA, 1999, vol. 96, pp. 7220-7225] The PGE2 formed was quantified by use of a commercial HTRF based kit (catalogue #62PG2PEC or #62P2APEC from Cisbio International). 100% activity was defined as the PGE2 production in positive controls subtracted by the PGE2 production in the negative controls. IC50 values were then determined using standard procedures.
The potency is expressed as IC50 and the value indicated is an average of at least n=2.

As for `NS(=O)(=O)c1ccccc1NS(=O)(=O)CCc1ccc(Cl)cc1OCCc1ccccc1` [Example 1, 2-(2-(4-chloro-2-phenethoxyphenyl)ethylsulfonamido)benzenesulfonamide], the values for the IC50 (in experiment [1]; at human mPGES-1) were 0.0508 µM and 0.00696 µM, respectively.
For `COc1ccccc1CCOc1cc(Cl)ccc1CCS(=O)(=O)Nc1ccccc1S(N)(=O)=O` [Example 2, 2-(2-(4-chloro-2-(2-methoxyphenethoxy)phenyl)ethylsulfonamido)benzenesulfonamide] the same measures were 0.0034 µM and 0.0037 µM.
With `COc1cccc(CCOc2cc(Cl)ccc2CCS(=O)(=O)Nc2ccccc2S(N)(=O)=O)c1` [Example 3, 2-(2-(4-chloro-2-(3-methoxyphenethoxy)phenyl)ethylsulfonamido)benzenesulfonamide], the IC50 stood at 0.09 µM in experiment [1] and 0.0064 µM against human mPGES-1.
For `COc1ccc(CCOc2cc(Cl)ccc2CCS(=O)(=O)Nc2ccccc2S(N)(=O)=O)cc1` [Example 4, 2-(2-(4-chloro-2-(4-methoxyphenethoxy)phenyl)ethylsulfonamido)benzenesulfonamide] the same measures were 0.0703 µM and 0.0264 µM.
On the same counts, the results for `N#Cc1ccccc1CCOc1cc(Cl)ccc1CCS(=O)(=O)Nc1ccccc1S(N)(=O)=O` [Example 5, 2-(2-(4-chloro-2-(2-cyanophenethoxy)phenyl)ethylsulfonamido)benzenesulfonamide] are 0.0104 µM and 0.0041 µM.
As for `N#Cc1cccc(CCOc2cc(Cl)ccc2CCS(=O)(=O)Nc2ccccc2S(N)(=O)=O)c1` [Example 6, 2-(2-(4-chloro-2-(3-cyanophenethoxy)phenyl)ethylsulfonamido)benzenesulfonamide], the IC50 in experiment [1] is 0.0774 µM; at human mPGES-1, 0.0136 µM.
With `N#Cc1ccc(CCOc2cc(Cl)ccc2CCS(=O)(=O)Nc2ccccc2S(N)(=O)=O)cc1` [Example 7, 2-(2-(4-chloro-2-(4-cyanophenethoxy)phenyl)ethylsulfonamido)benzenesulfonamide], the IC50 worked out at 0.0765 µM in experiment [1] and 0.0199 µM at human mPGES-1.
As to `Cn1ccc2c(CCOc3cc(Cl)ccc3CCS(=O)(=O)Nc3ccccc3S(N)(=O)=O)cccc21` [Example 8, 2-(2-(4-chloro-2-(2-(1-methyl-1H-indol-4-yl)ethoxy)phenyl)ethylsulfonamido)benzenesulfonamide], the figures for the IC50 (in experiment [1]; against human mPGES-1) were 0.0336 µM and 0.0073 µM, respectively.
`NS(=O)(=O)c1ccccc1NS(=O)(=O)CCc1ccc(Cl)cc1OCCc1cccc2c1CC(=O)N2` [Example 9, 2-(2-(4-chloro-2-(2-(2-oxoindolin-4-yl)ethoxy)phenyl)ethylsulfonamido)benzenesulfonamide]: the figures for the IC50 (in experiment [1]; on human mPGES-1) were 0.0843 µM and 0.0119 µM, respectively.
For `NS(=O)(=O)c1cc(CO)ccc1NS(=O)(=O)CCc1ccc(Cl)cc1OCCc1ccccc1` [Example 10, 2-(2-(4-chloro-2-phenethoxyphenyl)ethylsulfonamido)-5-(hydroxymethyl)-benzenesulfonamide] the same measures were 0.0106 µM and 0.00797 µM.

(Values after patent publication US10227296B2, “Bis(sulfonamide) derivatives and their use as mPGES inhibitors” (Acturum Real Estate AB, priority 2014, dated 2019).)
